Activity calls are given as the source filed them. The rule behind the calls is not given here.
Assays:
[1] = Toxicity in Sprague-Dawley rat assessed as maximum tolerated dose; conditions: in vivo
[2] = Prodrug conversion in C57BL/6J mouse assessed as AUC (0 to t) of 4'-Fluorouridine metabolite at 6 mg/kg, po by LC-MS/MS analysis; type: ADME, organism-based; conditions: in vivo
[3] = Cmax in fasted Sprague-Dawley rat at 23 mg/kg, po by LC-MS/MS analysis; type: ADME, organism-based; conditions: in vivo
[4] = Prodrug conversion in Sprague-Dawley rat assessed as 4'-Fluorouridine-NTP metabolite formation in brain at 6 mg/kg, po measured for 0.5 to 24 hrs by LC-MS/MS analysis; type: ADME, organism-based; conditions: in vivo, time 0.5-24 hrs
[5] = Stability of compound at pH 4.0 assessed as change in purity at 1 mg/ml incubated for 12 hrs by HPLC analysis; type: physicochemical; conditions: buffer, pH 4, 12 h
[6] = Prodrug conversion in Beagle dog assessed as Cmax of 4'-Fluorouridine metabolite at 10 mg/kg, po by LC-MS/MS analysis; type: ADME, organism-based, Canis lupus familiaris; conditions: in vivo
[7] = Prodrug conversion in Sprague-Dawley rat assessed as half life of 4'-Fluorouridine metabolite treated orally or intravenously by LC-MS/MS analysis; type: ADME; conditions: in vivo, po
[8] = Stability of compound at pH 6.8 assessed as change in purity at 1 mg/ml incubated for 4 hrs by HPLC analysis; type: physicochemical; conditions: buffer, pH 6.8, 4 h
[9] = Prodrug conversion in Beagle dog assessed as AUC (0 to t) of 4'-Fluorouridine metabolite at 10 mg/kg, po by LC-MS/MS analysis; type: ADME, organism-based, Canis lupus familiaris; conditions: in vivo
[10] = Prodrug conversion in Sprague-Dawley rat assessed as AUC (0 to t) of 4'-Fluorouridine metabolite at 2 mg/kg, po by LC-MS/MS analysis; type: ADME, organism-based; conditions: in vivo
[11] = Prodrug conversion in Sprague-Dawley rat assessed as AUC (0 to t) of 4'-Fluorouridine metabolite at 20 mg/kg, po by LC-MS/MS analysis; type: ADME, organism-based; conditions: in vivo
[12] = Prodrug conversion in Sprague-Dawley rat assessed as volume of distribution at steady state of 4'-Fluorouridine metabolite treated orally or intravenously by LC-MS/MS analysis; type: ADME; conditions: in vivo, po
[13] = Prodrug conversion in Beagle dog liver microsomes assessed as parent nucleoside metabolite formation at 1 uM measured up to 60 mins in presence of BNPP/NADPH/UDPGA by LC-MS/MS analysis; type: ADME, Canis lupus familiaris, Microsome; conditions: 1 h
[14] = Prodrug conversion in Sprague-Dawley rat assessed as 4'-Fluorouridine metabolite formation in thymus at 6 mg/kg, po measured for 0.5 to 24 hrs by LC-MS/MS analysis; type: ADME, organism-based; conditions: in vivo, time 0.5-24 hrs
[15] = tested on: Mammarenavirus choriomeningitidis; assay: In vivo antiviral activity against LCMV infected in C57BL/6-Prf1tm1Sdz/J mouse assessed as improvement in lymphocytes percentage at 1 to 5 mg/kg, po qd treated for 7 days; type: functional, organism-based; conditions: dose 1-5 mg/kg, time 7.0 day
[16] = Prodrug conversion in Beagle dog assessed as Cmax of 4'-Fluorouridine metabolite at 3 mg/kg/day, po treated for 7 days by LC-MS/MS analysis; type: ADME, organism-based, Canis lupus familiaris; conditions: in vivo, 168 h, time 7 day
[17] = tested on: Mammarenavirus choriomeningitidis; assay: Antiviral activity against LCMV infected in C57BL/6-Prf1tm1Sdz/J mouse assessed as reduction in viral titer in liver treated orally once daily for 7 days by RT-qPCR analysis; type: functional, organism-based; conditions: dose 1-5 mg/kg, route po, time 7.0 day
[18] = Prodrug conversion in Beagle dog plasma assessed as parent nucleoside metabolite formation at 1 uM measured up to 60 mins by LC-MS/MS analysis; type: ADME, cell-free, Canis lupus familiaris; conditions: 1 h
[19] = Prodrug conversion in C57BL/6J mouse plasma assessed as parent nucleoside metabolite formation administered orally or intravenously; type: ADME, cell-free; conditions: po
[20] = Prodrug conversion in Sprague-Dawley rat liver microsomes assessed as parent nucleoside metabolite formation at 1 uM measured up to 60 mins in presence of NADPH/UDPGA by LC-MS/MS analysis; type: ADME, Microsome; conditions: 1 h
[21] = Cmax in fasted Cynomolgus monkey at 11.6 mg/kg, po by LC-MS/MS analysis; type: ADME, organism-based, Macaca fascicularis; conditions: in vivo
[22] = Prodrug conversion in C57BL/6J mouse assessed as half life of 4'-Fluorouridine metabolite treated orally by LC-MS/MS analysis; type: ADME; conditions: in vivo, po
[23] = Prodrug conversion in Sprague-Dawley rat assessed as 4'-Fluorouridine metabolite formation in brain at 6 mg/kg, po measured for 0.5 to 24 hrs by LC-MS/MS analysis; type: ADME, organism-based; conditions: in vivo, time 0.5-24 hrs
[24] = Stability of compound at pH 6.8 assessed as change in purity at 1 mg/ml incubated for 12 hrs by HPLC analysis; type: physicochemical; conditions: buffer, pH 6.8, 12 h
[25] = tested on: Mammarenavirus choriomeningitidis; assay: Antiviral activity against LCMV infected in C57BL/6-Prf1tm1Sdz/J mouse assessed as reduction in viral titer in spleen treated orally once daily for 7 days by RT-qPCR analysis; type: functional, organism-based; conditions: dose 1-5 mg/kg, route po, time 7.0 day
[26] = Prodrug conversion in Sprague-Dawley rat assessed as 4'-Fluorouridine metabolite formation in stomach at 6 mg/kg, po measured for 0.5 to 24 hrs by LC-MS/MS analysis; type: ADME, organism-based; conditions: in vivo, time 0.5-24 hrs
[27] = tested on: Mammarenavirus choriomeningitidis; assay: In vivo antiviral activity against LCMV infected in C57BL/6-Prf1tm1Sdz/J mouse assessed as void of necrosis in spleen at 1 to 5 mg/kg, po qd for 7 days; type: functional, organism-based; conditions: dose 1-5 mg/kg, time 7.0 day
A549 = assay: Cytotoxicity against human A549 cells up to 100 uM; type: toxicity, cell-based; conditions: a549, 100 µM
[28] = Prodrug conversion in C57BL/6J mouse assessed as AUC (0 to t) of 4'-Fluorouridine metabolite at 20 mg/kg, po by LC-MS/MS analysis; type: ADME, organism-based; conditions: in vivo
[29] = tested on: Mammarenavirus choriomeningitidis; assay: Antiviral activity against LCMV infected in C57BL/6-Prf1tm1Sdz/J mouse assessed as reduction in viral copy number in lung treated orally once daily for 7 days by RT-qPCR analysis; type: functional, organism-based; conditions: dose 1-5 mg/kg, route po, time 7.0 day
[30] = Prodrug conversion in C57BL/6J mouse liver microsomes assessed as parent nucleoside metabolite formation at 1 uM measured up to 60 mins in presence of BNPP/NADPH/UDPGA by LC-MS/MS analysis; type: ADME, Microsome; conditions: 1 h
[31] = Prodrug conversion in Sprague-Dawley rat assessed as AUC (0 to t) of 4'-Fluorouridine metabolite at 6 mg/kg, po by LC-MS/MS analysis; type: ADME, organism-based; conditions: in vivo
[32] = tested on: Mammarenavirus choriomeningitidis; assay: In vivo antiviral activity against LCMV infected in C57BL/6-Prf1tm1Sdz/J mouse assessed as appearance of clear boundary between red and white pulp in spleen at 1 to 5 mg/kg, po qd for 7 days; type: functional, organism-based; conditions: dose 1-5 mg/kg, time 7.0 day
[33] = Prodrug conversion in Sprague-Dawley rat assessed as 4'-Fluorouridine metabolite formation in spleen at 6 mg/kg, po measured for 0.5 to 24 hrs by LC-MS/MS analysis; type: ADME, organism-based; conditions: in vivo, time 0.5-24 hrs
[34] = tested on: Mammarenavirus choriomeningitidis; assay: In vivo antiviral activity against LCMV infected in C57BL/6-Prf1tm1Sdz/J mouse assessed as improvement in splenic tissue lesion at 1 to 5 mg/kg, po qd for 7 days; type: functional, organism-based; conditions: dose 1-5 mg/kg, time 7.0 day
[35] = Prodrug conversion in C57BL/6J mouse liver microsomes assessed as parent nucleoside metabolite formation at 1 uM measured up to 60 mins in presence of NADPH/UDPGA by LC-MS/MS analysis; type: ADME, Microsome; conditions: 1 h

For `CC(C)C(=O)OC[C@@]1(F)O[C@@H](n2ccc(=O)n(COC(=O)c3cccnc3)c2=O)[C@H](OC(=O)C(C)C)[C@@H]1OC(=O)C(C)C`, the MTD [1] was > 500 mg/kg, the AUCt [2] was 1729 ng·h/mL and the Cmax [3] was 1230 ng/mL. For the same molecule, the Drug metabolism [4] was “metabolite_detected”, the Activity [5] was 0% and the Cmax [6] was 1501 ng/mL. It also gave a t1/2 [7] of 15 h, an Activity [8] of -0.1% and an AUCt [9] of 3601 ng·h/mL. For the same molecule, the AUCt [10] was 962 ng·h/mL, the AUCt [11] was 11325 ng·h/mL and the Vdss [12] was 24.3 L/kg. For the same molecule, the Drug metabolism [13] was “metabolite_notdetected”, the Drug metabolism [14] was “metabolite_detected” and the Activity [15] was “Active”. For the same molecule, the Cmax [16] was 411 ng/mL, the Activity [17] was “Dose-dependent-effect” and the Drug metabolism [18] was “metabolite_detected”. The Drug metabolism [19] was “metabolite_detected”, the Drug metabolism [20] was “metabolite_detected” and the Cmax [21] was 2390 ng/mL. The t1/2 [22] was 12 h, the Drug metabolism [23] was “metabolite_detected” and the Activity [24] was -0.3%. The Activity [25] was “Dose-dependent-effect”, the Drug metabolism [26] was “metabolite_detected” and the Activity [27] was “Active”. The Activity (A549) was “Non-toxic”, the AUCt [28] was 7586 ng·h/mL and the Activity [29] was “Dose-dependent-effect”. For the same molecule, the Drug metabolism [30] was “metabolite_notdetected”, the AUCt [31] was 3023 ng·h/mL and the Activity [32] was “Active”. The Drug metabolism [33] was “metabolite_detected”, the Activity [34] was “Active” and the Drug metabolism [35] was “metabolite_detected”.

Reference: ChEMBL document CHEMBL6177980 (J Med Chem, 2025)
